Measured values reported in the NIST ThermoML archive (doi:10.1021/je1002829).

Assay: xn = mol fraction of the nth substance listed
Conditions: for mass density: 101 kPa, Liquid, Pycnometric method

CCCC(=O)O [butanoic acid] + O
Conditions | mass density, 293.15 K [kg/m3] | mass density, 298.15 K [kg/m3] | mass density, 303.15 K [kg/m3] | mass density, 308.15 K [kg/m3] | surface tension liquid-gas, 293.15 K [mN/m] | surface tension liquid-gas, 298.15 K [mN/m] | surface tension liquid-gas, 303.15 K [mN/m] | surface tension liquid-gas, 308.15 K [mN/m]
x1 = 0.00475 | – | – | – | – | 50.5 | 50.01 | 49.13 | 48.56
x1 = 0.00655 | – | – | – | – | 45.88 | 45.32 | 44.7 | 44.05
x1 = 0.00903 | – | – | – | – | 41.59 | 40.95 | 40.38 | 39.72
x1 = 0.00998 | – | – | – | – | 40.32 | 39.69 | 39.11 | 38.47
x1 = 0.01274 | – | – | – | – | 37.41 | 36.84 | 36.24 | 35.68
x1 = 0.01432 | – | – | – | – | 36.11 | 35.6 | 34.99 | 34.5
x1 = 0.01655 | 1002.55 | 1000.29 | 998.03 | 995.86 | 34.6 | 34.16 | 33.58 | 33.16
x1 = 0.02141 | 1003.38 | 1001.03 | 998.67 | 996.41 | – | – | – | –
x1 = 0.03346 | 1004.38 | 1001.93 | 999.47 | 997.11 | 29.28 | 28.91 | 28.59 | 28.45
x1 = 0.03727 | 1004.49 | 1001.94 | 999.38 | 996.93 | – | – | – | –
x1 = 0.04522 | 1004.3 | 1001.66 | 999.01 | 996.46 | 28.48 | 28.33 | 28.14 | 27.95
x1 = 0.04995 | 1004.13 | 1001.39 | 998.64 | 995.99 | – | – | – | –
x1 = 0.05825 | 1003.61 | 1000.77 | 997.92 | 995.18 | 28.46 | 28.38 | 28.1 | 27.87
x1 = 0.06959 | 1002.83 | 999.9 | 996.96 | 994.11 | – | – | – | –
x1 = 0.07723 | 1002.34 | 999.13 | 995.79 | 992.85 | – | – | – | –
x1 = 0.08723 | – | – | – | – | 28.61 | 28.3 | 27.92 | 27.72
x1 = 0.09004 | 1001.61 | 998.48 | 995.24 | 991.96 | – | – | – | –
x1 = 0.09948 | 1001.12 | 997.91 | 994.7 | 991.51 | 28.52 | 28.24 | 27.88 | 27.67
x1 = 0.1147 | – | – | – | – | 28.39 | 28.17 | 27.84 | 27.63
x1 = 0.1172 | 1000.27 | 996.95 | 993.63 | 990.42 | – | – | – | –
x1 = 0.131 | 999.59 | 996.11 | 992.63 | 989.31 | – | – | – | –
x1 = 0.134 | – | – | – | – | 28.24 | 28.1 | 27.82 | 27.58
x1 = 0.1428 | – | – | – | – | 28.19 | 28.07 | 27.81 | 27.56
x1 = 0.1443 | 998.82 | 995.31 | 991.8 | 988.32 | – | – | – | –
x1 = 0.1767 | 997.16 | 993.56 | 989.96 | 986.45 | 28.21 | 28.01 | 27.79 | 27.47
